# Measured values taken from the NIST ThermoML archive (doi:10.1021/acs.jced.8b00201).
# ± gives the expanded uncertainty stated by the source.
# Assays:
# [1] = 100 kPa, Liquid; for viscosity: Concentric cylinders viscometry; for mass density: Vibrating tube method
# [2] = xn = mol fraction of the nth substance listed; details: 100 kPa, Liquid; for viscosity: Concentric cylinders viscometry; for mass density: Vibrating tube method
Compound,viscosity ([1]; 293.15 K) [mPa·s],mass density ([1]; 293.15 K) [kg/m3],viscosity ([1]; 298.15 K) [mPa·s],mass density ([1]; 298.15 K) [kg/m3],viscosity ([1]; 303.15 K) [mPa·s],mass density ([1]; 303.15 K) [kg/m3],viscosity ([1]; 308.15 K) [mPa·s],mass density ([1]; 308.15 K) [kg/m3],viscosity ([1]; 313.15 K) [mPa·s],mass density ([1]; 313.15 K) [kg/m3],viscosity ([1]; 318.15 K) [mPa·s],mass density ([1]; 318.15 K) [kg/m3],viscosity ([1]; 323.15 K) [mPa·s],mass density ([1]; 323.15 K) [kg/m3],"viscosity ([2]; 293.15 K, x2 = 0) [mPa·s]","mass density ([2]; 293.15 K, x2 = 0) [kg/m3]","viscosity ([2]; 298.15 K, x2 = 0) [mPa·s]","mass density ([2]; 298.15 K, x2 = 0) [kg/m3]","viscosity ([2]; 303.15 K, x2 = 0) [mPa·s]","mass density ([2]; 303.15 K, x2 = 0) [kg/m3]",further results
O=C1CCCCC1 [cyclohexanone],2.3 ± 0.12,948.8 ± 20,2.09 ± 0.11,943.1 ± 20,1.91 ± 0.1,938.2 ± 20,1.75 ± 0.09,933.5 ± 20,1.6 ± 0.08,928.8 ± 20,1.46 ± 0.07,924.4 ± 20,1.34 ± 0.07,920.7 ± 20,–,–,–,–,–,–,–
O=C1CCCCC1 [cyclohexanone] + CCCCCCCCCO,–,–,–,–,–,–,–,–,–,–,–,–,–,–,–,–,–,–,–,–,"viscosity ([2]; 293.15 K, x1 = 1): 2.3 ± 0.12 mPa·s; mass density ([2]; 293.15 K, x1 = 1): 948.8 ± 20 kg/m3; viscosity ([2]; 298.15 K, x1 = 1): 2.09 ± 0.11 mPa·s; mass density ([2]; 298.15 K, x1 = 1): 943.1 ± 20 kg/m3; viscosity ([2]; 303.15 K, x1 = 1): 1.91 ± 0.1 mPa·s; mass density ([2]; 303.15 K, x1 = 1): 938.2 ± 20 kg/m3; viscosity ([2]; 308.15 K, x1 = 1): 1.75 ± 0.09 mPa·s; mass density ([2]; 308.15 K, x1 = 1): 933.5 ± 20 kg/m3; viscosity ([2]; 313.15 K, x1 = 1): 1.6 ± 0.08 mPa·s; mass density ([2]; 313.15 K, x1 = 1): 928.8 ± 20 kg/m3; viscosity ([2]; 318.15 K, x1 = 1): 1.46 ± 0.07 mPa·s; mass density ([2]; 318.15 K, x1 = 1): 924.4 ± 20 kg/m3; viscosity ([2]; 323.15 K, x1 = 1): 1.34 ± 0.07 mPa·s; mass density ([2]; 323.15 K, x1 = 1): 920.7 ± 20 kg/m3"
O=C1CCCCC1 [cyclohexanone] + CCCCCCCO,–,–,–,–,–,–,–,–,–,–,–,–,–,–,–,–,–,–,–,–,"viscosity ([2]; 293.15 K, x1 = 1): 2.3 ± 0.12 mPa·s; mass density ([2]; 293.15 K, x1 = 1): 948.8 ± 20 kg/m3; viscosity ([2]; 298.15 K, x1 = 1): 2.09 ± 0.11 mPa·s; mass density ([2]; 298.15 K, x1 = 1): 943.1 ± 20 kg/m3; viscosity ([2]; 303.15 K, x1 = 1): 1.91 ± 0.1 mPa·s; mass density ([2]; 303.15 K, x1 = 1): 938.2 ± 20 kg/m3; viscosity ([2]; 308.15 K, x1 = 1): 1.75 ± 0.09 mPa·s; mass density ([2]; 308.15 K, x1 = 1): 933.5 ± 20 kg/m3; viscosity ([2]; 313.15 K, x1 = 1): 1.6 ± 0.08 mPa·s; mass density ([2]; 313.15 K, x1 = 1): 928.8 ± 20 kg/m3; viscosity ([2]; 318.15 K, x1 = 1): 1.46 ± 0.07 mPa·s; mass density ([2]; 318.15 K, x1 = 1): 924.4 ± 20 kg/m3; viscosity ([2]; 323.15 K, x1 = 1): 1.34 ± 0.07 mPa·s; mass density ([2]; 323.15 K, x1 = 1): 920.7 ± 20 kg/m3"
CCCCCCCCCCO [decan-1-ol],14.42 ± 0.72,829.5 ± 20,11.8 ± 0.59,826.1 ± 20,9.76 ± 0.49,822.7 ± 20,8.14 ± 0.41,819.3 ± 20,6.84 ± 0.34,815.8 ± 20,5.8 ± 0.29,812.4 ± 20,4.96 ± 0.25,808.9 ± 20,–,–,–,–,–,–,–
CCCCCCCCCCO [decan-1-ol] + O=C1CCCCC1,–,–,–,–,–,–,–,–,–,–,–,–,–,–,14.42 ± 0.72,829.5 ± 20,11.8 ± 0.59,826.1 ± 20,9.76 ± 0.49,822.7 ± 20,"viscosity ([2]; 308.15 K, x2 = 0): 8.14 ± 0.41 mPa·s; mass density ([2]; 308.15 K, x2 = 0): 819.3 ± 20 kg/m3; viscosity ([2]; 313.15 K, x2 = 0): 6.84 ± 0.34 mPa·s; mass density ([2]; 313.15 K, x2 = 0): 815.8 ± 20 kg/m3; viscosity ([2]; 318.15 K, x2 = 0): 5.8 ± 0.29 mPa·s; mass density ([2]; 318.15 K, x2 = 0): 812.4 ± 20 kg/m3; viscosity ([2]; 323.15 K, x2 = 0): 4.96 ± 0.25 mPa·s; mass density ([2]; 323.15 K, x2 = 0): 808.9 ± 20 kg/m3"
CCCCCCCO [heptan-1-ol],7.03 ± 0.35,822.2 ± 20,5.92 ± 0.3,818.7 ± 20,5.03 ± 0.25,815.2 ± 20,4.3 ± 0.22,811.6 ± 20,3.71 ± 0.19,808 ± 20,3.21 ± 0.16,804.4 ± 20,2.79 ± 0.14,800.7 ± 20,–,–,–,–,–,–,–
CCCCCCO [hexan-1-ol],5.37 ± 0.27,818.7 ± 20,4.58 ± 0.23,815.1 ± 20,3.94 ± 0.2,811.5 ± 20,3.4 ± 0.17,807.9 ± 20,2.95 ± 0.15,804.2 ± 20,2.58 ± 0.13,800.6 ± 20,2.26 ± 0.11,796.8 ± 20,–,–,–,–,–,–,–
CCCCCCO [hexan-1-ol] + O=C1CCCCC1,–,–,–,–,–,–,–,–,–,–,–,–,–,–,5.37 ± 0.27,818.7 ± 20,4.58 ± 0.23,815.1 ± 20,3.94 ± 0.2,811.5 ± 20,"viscosity ([2]; 308.15 K, x2 = 0): 3.4 ± 0.17 mPa·s; mass density ([2]; 308.15 K, x2 = 0): 807.9 ± 20 kg/m3; viscosity ([2]; 313.15 K, x2 = 0): 2.95 ± 0.15 mPa·s; mass density ([2]; 313.15 K, x2 = 0): 804.2 ± 20 kg/m3; viscosity ([2]; 318.15 K, x2 = 0): 2.58 ± 0.13 mPa·s; mass density ([2]; 318.15 K, x2 = 0): 800.6 ± 20 kg/m3; viscosity ([2]; 323.15 K, x2 = 0): 2.26 ± 0.11 mPa·s; mass density ([2]; 323.15 K, x2 = 0): 796.8 ± 20 kg/m3"
CCCCCCCCCO [nonan-1-ol],11.41 ± 0.57,827.5 ± 20,9.43 ± 0.47,824 ± 20,7.86 ± 0.39,820.5 ± 20,6.61 ± 0.33,817.1 ± 20,5.6 ± 0.28,813.6 ± 20,4.78 ± 0.24,810.1 ± 20,4.1 ± 0.21,806.5 ± 20,–,–,–,–,–,–,–
CCCCCCCCO [octan-1-ol],9.13 ± 0.46,824.9 ± 20,7.62 ± 0.38,821.4 ± 20,6.41 ± 0.32,817.9 ± 20,5.43 ± 0.27,814.4 ± 20,4.63 ± 0.23,810.9 ± 20,3.98 ± 0.2,807.3 ± 20,3.4 ± 0.17,803.7 ± 20,–,–,–,–,–,–,–
CCCCCCCCO [octan-1-ol] + O=C1CCCCC1,–,–,–,–,–,–,–,–,–,–,–,–,–,–,9.13 ± 0.46,824.9 ± 20,7.62 ± 0.38,821.4 ± 20,6.41 ± 0.32,817.9 ± 20,"viscosity ([2]; 308.15 K, x2 = 0): 5.43 ± 0.27 mPa·s; mass density ([2]; 308.15 K, x2 = 0): 814.4 ± 20 kg/m3; viscosity ([2]; 313.15 K, x2 = 0): 4.63 ± 0.23 mPa·s; mass density ([2]; 313.15 K, x2 = 0): 810.9 ± 20 kg/m3; viscosity ([2]; 318.15 K, x2 = 0): 3.98 ± 0.2 mPa·s; mass density ([2]; 318.15 K, x2 = 0): 807.3 ± 20 kg/m3; viscosity ([2]; 323.15 K, x2 = 0): 3.4 ± 0.17 mPa·s; mass density ([2]; 323.15 K, x2 = 0): 803.7 ± 20 kg/m3"
CCCCCO [pentan-1-ol],4.03 ± 0.2,814.5 ± 20,3.49 ± 0.18,810.8 ± 20,3.04 ± 0.15,807.1 ± 20,2.65 ± 0.13,803.3 ± 20,2.32 ± 0.12,799.6 ± 20,2.05 ± 0.1,795.8 ± 20,1.81 ± 0.09,792 ± 20,–,–,–,–,–,–,–
CCCCCO [pentan-1-ol] + O=C1CCCCC1,–,–,–,–,–,–,–,–,–,–,–,–,–,–,4.03 ± 0.2,814.5 ± 20,3.49 ± 0.18,810.8 ± 20,3.04 ± 0.15,807.1 ± 20,"viscosity ([2]; 308.15 K, x2 = 0): 2.65 ± 0.13 mPa·s; mass density ([2]; 308.15 K, x2 = 0): 803.3 ± 20 kg/m3; viscosity ([2]; 313.15 K, x2 = 0): 2.32 ± 0.12 mPa·s; mass density ([2]; 313.15 K, x2 = 0): 799.6 ± 20 kg/m3; viscosity ([2]; 318.15 K, x2 = 0): 2.05 ± 0.1 mPa·s; mass density ([2]; 318.15 K, x2 = 0): 795.8 ± 20 kg/m3; viscosity ([2]; 323.15 K, x2 = 0): 1.81 ± 0.09 mPa·s; mass density ([2]; 323.15 K, x2 = 0): 792 ± 20 kg/m3"
